# Results: US20230139445A1, “BACTERIAL CELLS WITH IMPROVED TOLERANCE TO DIACIDS” (priority 2016, published 2023)
# Like-named read-outs stand apart in the source and are kept apart here.
# How the values were obtained:
# [1] = test system: Escherichia coli K-12 MG1655 and evolved isolates; format: cell-based; conditions: 38 g/L sebacic acid
# Method: Five colonies from wild-type K-12 MG1655 and 10 individual colonies deriving from each population were inoculated into 300 μL M9+1% glucose in 96 well deepwell plates and incubated in a 300 rpm plate shaker at 37° C. The next day, cells were diluted 10× in M9+1% glucose and 30 μL was transferred into clear-bottomed 96 well half-deepwell plates (with rectangular wells) containing M9+1% glucose and M9+1% glucose+52.78 g/L glutaric acid or 55.56 g/L adipic acid, such that the final concentration of glutaric acid or adipic acid was 47.5 g/L or 50 g/L, respectively. In addition, cryogenic glycerol stocks of the overnight culture were saved in a 96 well plate format. Half deepwell plates were incubated at 37° C. with 225 rpm shaking in a Growth Profiler (Enzyscreen), with optical scans of the plates taken at 15 minute intervals. Green pixel values integrated over a 1 mm diameter circular area in each well were converted to OD600 values using a previously determined calibration between OD600 and green pixel values.
# Additionally, each evolved isolate was tested for cross-tolerance toward other dicarboxylic acids of interest. […] All diacids tested were either the neutral sodium salts, or the free diacid was neutralized with sodium hydroxide to pH 7.0 for testing.
# [2] = test system: Escherichia coli K-12 MG1655; assay: Screening for tolerance in wild-type cells: growth in varying concentrations of neutralized diacid, Biolector; format: cell-based; conditions: for tlag (lag time), mean / μ (growth rate), mean: neutralized with sodium hydroxide
# Method: Escherichia coli K-12 MG1655 was grown overnight in M9 minimal medium+1% glucose and subcultured the following morning to an initial OD600 of 0.05 in M9+1% glucose. Cells were grown to mid-exponential phase (OD600 0.7-1.0) and were back-diluted with fresh medium to an OD600 of 0.7. The diluted cells were used to inoculate M9+1% glucose containing varying concentrations of glutaric acid or adipic acid which were neutralized to pH 7.0 with sodium hydroxide, and growth was measured in FlowerPlates in a Biolector microbioreactor system (m2p-labs) at 37° C. with 1000 rpm shaking. The culture volume in each well was 1.4 mL.
structure (smiles),measurement,setting,value
O=C(O)CCCCCCCCC(=O)O [sebacic acid],growth rate μ (mean),[1]; strain ADIP1-1,0.244 h⁻¹
same,lag time tlag (mean),[1]; strain ADIP1-1,21.6 h
same,growth rate μ (mean),[1]; strain ADIP1-9,0.248 h⁻¹
same,lag time tlag (mean),[1]; strain ADIP1-9,17.8 h
same,growth rate μ (mean),[1]; strain ADIP2-5,0.315 h⁻¹
same,lag time tlag (mean),[1]; strain ADIP2-5,13.5 h
same,growth rate μ (mean),[1]; strain ADIP2-6,0.319 h⁻¹
same,lag time tlag (mean),[1]; strain ADIP2-6,12.9 h
same,growth rate μ (mean),[1]; strain ADIP2-10,0.290 h⁻¹
same,lag time tlag (mean),[1]; strain ADIP2-10,13.4 h
same,growth rate μ (mean),[1]; strain ADIP3-2,0.254 h⁻¹
same,lag time tlag (mean),[1]; strain ADIP3-2,17.6 h
same,growth rate μ (mean),[1]; strain ADIP3-4,0.262 h⁻¹
same,lag time tlag (mean),[1]; strain ADIP3-4,17.1 h
same,growth rate μ (mean),[1]; strain ADIP3-8,0.253 h⁻¹
same,lag time tlag (mean),[1]; strain ADIP3-8,19.8 h
same,growth rate μ (mean),[1]; strain ADIP4-1,0.308 h⁻¹
same,lag time tlag (mean),[1]; strain ADIP4-1,13.1 h
same,growth rate μ (mean),[1]; strain ADIP4-8,0.289 h⁻¹
same,lag time tlag (mean),[1]; strain ADIP4-8,12.8 h
same,growth rate μ (mean),[1]; strain ADIP5-2,0.288 h⁻¹
same,lag time tlag (mean),[1]; strain ADIP5-2,15.3 h
same,growth rate μ (mean),[1]; strain ADIP5-6,0.273 h⁻¹
same,lag time tlag (mean),[1]; strain ADIP5-6,20.7 h
same,growth rate μ (mean),[1]; strain ADIP6-3,0.268 h⁻¹
same,lag time tlag (mean),[1]; strain ADIP6-3,17.9 h
same,growth rate μ (mean),[1]; strain ADIP6-9,0.181 h⁻¹
same,lag time tlag (mean),[1]; strain ADIP6-9,23.1 h
same,growth rate μ (mean),[1]; strain ADIP6-10,0.267 h⁻¹
same,lag time tlag (mean),[1]; strain ADIP6-10,15.3 h
same,growth rate μ (mean),[1]; strain ADIP7-2,0.356 h⁻¹
same,lag time tlag (mean),[1]; strain ADIP7-2,11.1 h
same,growth rate μ (mean),[1]; strain ADIP7-5,0.353 h⁻¹
same,lag time tlag (mean),[1]; strain ADIP7-5,12.0 h
same,growth rate μ (mean),[1]; strain ADIP8-3,0.171 h⁻¹
same,lag time tlag (mean),[1]; strain ADIP8-3,28.9 h
same,growth rate μ (mean),[1]; strain ADIP8-7,0.157 h⁻¹
same,lag time tlag (mean),[1]; strain ADIP8-7,30.9 h
same,growth rate μ (mean),[1]; strain ADIP8-10,0.165 h⁻¹
same,lag time tlag (mean),[1]; strain ADIP8-10,30.0 h
same,growth rate μ (mean),[1]; strain GLUT1-3,0.074 h⁻¹
same,lag time tlag (mean),[1]; strain GLUT1-3,34.9 h
same,growth rate μ (mean),[1]; strain GLUT1-9,0.043 h⁻¹
same,lag time tlag (mean),[1]; strain GLUT1-9,44.7 h
same,growth rate μ (mean),[1]; strain GLUT1-10,0.278 h⁻¹
same,lag time tlag (mean),[1]; strain GLUT1-10,20.6 h
same,growth rate μ (mean),[1]; strain GLUT2-1,0.153 h⁻¹
same,lag time tlag (mean),[1]; strain GLUT2-1,21.7 h
same,growth rate μ (mean),[1]; strain GLUT2-9,0.282 h⁻¹
same,lag time tlag (mean),[1]; strain GLUT2-9,12.5 h
same,growth rate μ (mean),[1]; strain GLUT2-10,0.093 h⁻¹
same,lag time tlag (mean),[1]; strain GLUT2-10,29.8 h
same,growth rate μ (mean),[1]; strain GLUT3-5,0.106 h⁻¹
same,lag time tlag (mean),[1]; strain GLUT3-5,20.0 h
same,growth rate μ (mean),[1]; strain GLUT3-7,0.068 h⁻¹
same,lag time tlag (mean),[1]; strain GLUT3-7,6.4 h
same,growth rate μ (mean),[1]; strain GLUT3-9,0.158 h⁻¹
same,lag time tlag (mean),[1]; strain GLUT3-9,18.9 h
same,growth rate μ (mean),[1]; strain GLUT4-1,0.266 h⁻¹
same,lag time tlag (mean),[1]; strain GLUT4-1,32.9 h
same,growth rate μ (mean),[1]; strain GLUT4-4,0.265 h⁻¹
same,lag time tlag (mean),[1]; strain GLUT4-4,34.2 h
same,growth rate μ (mean),[1]; strain GLUT4-10,0.113 h⁻¹
same,lag time tlag (mean),[1]; strain GLUT4-10,20.1 h
same,growth rate μ (mean),[1]; strain GLUT5-4,0.183 h⁻¹
same,lag time tlag (mean),[1]; strain GLUT5-4,37.7 h
same,growth rate μ (mean),[1]; strain GLUT5-5,0.117 h⁻¹
same,lag time tlag (mean),[1]; strain GLUT5-5,54.9 h
same,growth rate μ (mean),[1]; strain GLUT5-9,0.143 h⁻¹
same,lag time tlag (mean),[1]; strain GLUT5-9,58.2 h
same,growth rate μ (mean),[1]; strain GLUT6-4,0.085 h⁻¹
same,lag time tlag (mean),[1]; strain GLUT6-4,26.4 h
same,growth rate μ (mean),[1]; strain GLUT6-5,0.123 h⁻¹
same,lag time tlag (mean),[1]; strain GLUT6-5,21.6 h
same,growth rate μ (mean),[1]; strain GLUT6-10,0.132 h⁻¹
same,lag time tlag (mean),[1]; strain GLUT6-10,26.2 h
same,growth rate μ (mean),[1]; strain GLUT7-2,0.173 h⁻¹
same,lag time tlag (mean),[1]; strain GLUT7-2,17.5 h
same,growth rate μ (mean),[1]; strain GLUT7-6,0.141 h⁻¹
same,lag time tlag (mean),[1]; strain GLUT7-6,18.9 h
same,growth rate μ (mean),[1]; strain GLUT7-7,0.112 h⁻¹
same,lag time tlag (mean),[1]; strain GLUT7-7,20.0 h
same,growth rate μ (mean),[1]; strain GLUT8-5,0.300 h⁻¹
same,lag time tlag (mean),[1]; strain GLUT8-5,21.4 h
same,growth rate μ (mean),[1]; strain GLUT8-6,0.464 h⁻¹
same,lag time tlag (mean),[1]; strain GLUT8-6,13.7 h
same,growth rate μ (mean),[1]; strain GLUT8-9,0.471 h⁻¹
same,lag time tlag (mean),[1]; strain GLUT8-9,14.5 h
same,growth rate μ (mean),[1]; strain MG1655 (Table 28),0.167 h⁻¹
same,lag time tlag (mean),[1]; strain MG1655 (Table 28),26.9 h
same,growth rate μ (mean),[1]; strain MG1655 (Table 29),0.135 h⁻¹
same,lag time tlag (mean),[1]; strain MG1655 (Table 29),28.2 h
same,"tlag (lag time), mean",[2]; 10 g/L,1.9 h
same,"μ (growth rate), mean","[2]; 10 g/L, M9+1% glucose, 37° C",0.707 h⁻¹
same,"tlag (lag time), mean",[2]; 20 g/L,2.7 h
same,"μ (growth rate), mean",[2]; 20 g/L,0.578 h⁻¹
same,"tlag (lag time), mean",[2]; 25 g/L,3.3 h
same,"μ (growth rate), mean",[2]; 25 g/L,0.413 h⁻¹
same,"tlag (lag time), mean",[2]; 30 g/L,5.7 h
same,"μ (growth rate), mean",[2]; 30 g/L,0.386 h⁻¹
same,"tlag (lag time), mean",[2]; 35 g/L,10.8 h
same,"μ (growth rate), mean",[2]; 35 g/L,0.306 h⁻¹
same,"tlag (lag time), mean",[2]; 40 g/L,22.5 h
same,"μ (growth rate), mean",[2]; 40 g/L,0.222 h⁻¹
same,"tlag (lag time), mean",[2]; 45 g/L,50.6 h
same,"μ (growth rate), mean",[2]; 45 g/L,0.051 h⁻¹
same,growth of K-12 MG1655,[2]; above 40 g/L concentration,nearly no growth detected
